# From publication PMC7031696 (Cell chemical biology, 2019)
# Read-outs that look alike come from different tables or passages of the source.
# How the values were obtained:
# [1] = tested on: 3D7-MR4 trophozoite parasite-infected RBCs; experiment: Metabolomic profiling (hydrophilic metabolite changes, UHPLC-MS); assay type: cell-based, Plasmodium falciparum
# [2] = tested on: asynchronous 3D7-A10 parasite cultures; experiment: Standard 72-h exposure asexual blood stage susceptibility assay (IC50^72h); assay type: cell-based, Plasmodium falciparum; conditions: Plasmodium falciparum, 3D7, 72 h, read-out: Overall (72hr assay) Mean IC50 (IC50^72h)
# [3] = tested on: Plasmodium falciparum 3D7-A10 parasites; experiment: Stage specificity assay (8-h exposure of synchronized stages, IC50^8h); assay type: cell-based; conditions: for IC50: Plasmodium falciparum
smiles,measurement,setting,value
"CC(C)C[C@@H](/C=C/S(C)(=O)=O)NC(=O)[C@H](CC(C)C)NC(=O)[C@H](Cc1c[nH]c2ccccc12)NC(=O)CN1CCOCC1 [WLL-vs, reference compound]",changes within the set of metabolites detected (low fold change group),"[1]; 10 × IC50^72h, 2.5 hr, trophozoites",did not induce major changes
same,Log2(fold changes) 3-phosphoglycerate,"[1]; metabolite 3-phosphoglycerate, log2 fold change",-0.1339
same,Log2(fold changes) 4-Pyridoxic acid,"[1]; metabolite 4-Pyridoxic acid, log2 fold change",0.0000
same,Log2(fold changes) 4-aminobutyrate,"[1]; metabolite 4-aminobutyrate, log2 fold change",-0.0215
same,Log2(fold changes) 4-phosphopantetheine,"[1]; metabolite 4-phosphopantetheine, log2 fold change",0.0000
same,Log2(fold changes) 4-phosphopantothenate,"[1]; metabolite 4-phosphopantothenate, log2 fold change",-0.0913
same,Log2(fold changes) 5-aminopentanoic acid,"[1]; metabolite 5-aminopentanoic acid, log2 fold change",0.0000
same,Log2(fold changes) 5-methyl-THF,"[1]; metabolite 5-methyl-THF, log2 fold change",0.0000
same,Log2(fold changes) 5-phosphoribosyl-1-pyrophosphate,"[1]; metabolite 5-phosphoribosyl-1-pyrophosphate, log2 fold change",-0.1277
same,Log2(fold changes) 6-phospho-D-gluconate,"[1]; metabolite 6-phospho-D-gluconate, log2 fold change",-0.0373
same,Log2(fold change) HVDD,[1]; metabolite HVDD,-0.5028
same,Log2(fold change) Hydroxyisocaproic acid,[1]; metabolite Hydroxyisocaproic acid,0.0000
same,Log2(fold change) IDP,[1]; metabolite IDP,0.0000
same,Log2(fold change) IMP,[1]; metabolite IMP,0.0400
same,Log2(fold change) Inositol,[1]; metabolite Inositol,0.0000
same,Log2(fold change) Isopentyl-PP,[1]; metabolite Isopentyl-PP,0.0000
same,Log2(fold change) L-arginino-succinate,[1]; metabolite L-arginino-succinate,0.0000
same,Log2(fold change) LD,[1]; metabolite LD,0.0000
same,Log2(fold change) Myristoyl/tetradecanoyl-CoA,[1]; metabolite Myristoyl/tetradecanoyl-CoA,0.0000
same,Log2(fold change) N-Acetyl-L-alanine,[1]; metabolite N-Acetyl-L-alanine,-0.0632
same,Log2(fold change) N-acetyl-L-ornithine,[1]; metabolite N-acetyl-L-ornithine,-0.0046
same,Log2(fold change) N-acetyl-glucosamine-1/6-phosphate,[1]; metabolite N-acetyl-glucosamine-1/6-phosphate,-0.0854
same,Log2(fold change) N-acetyl-glutamate,[1]; metabolite N-acetyl-glutamate,0.1610
same,Log2(fold change) N-acetyl-glutamine,[1]; metabolite N-acetyl-glutamine,0.0000
same,Log2(fold change) N-carbamoyl-L-aspartate,[1]; metabolite N-carbamoyl-L-aspartate,0.1147
same,Log2(fold change) NAD+,[1]; metabolite NAD+,0.0000
same,Log2(fold change) NADH,[1]; metabolite NADH,0.3385
same,Log2(fold change) NADP+,[1]; metabolite NADP+,-0.1225
same,Log2(fold change) NADPH,[1]; metabolite NADPH,0.0976
same,Log2(fold change) O-acetyl-L-serine,[1]; metabolite O-acetyl-L-serine,0.0000
same,Log2(fold change) Octoluse 8/1P,[1]; metabolite Octoluse 8/1P,0.0000
same,Log2(fold change) Octoluse Bisphosphate,[1]; metabolite Octoluse Bisphosphate,-0.1506
same,Log2(fold change) PD,[1]; metabolite PD,-0.2643
same,Log2(fold change) PE,[1]; metabolite PE,-0.3236
same,Log2(fold change) PEE,[1]; metabolite PEE,-0.1344
same,Log2(fold change) PEEK,[1]; metabolite PEEK,0.0000
same,Log2(fold change) PVNF,[1]; metabolite PVNF,-0.5296
same,Log2(fold change) Pyroglutamic acid,[1]; metabolite Pyroglutamic acid,0.0000
same,Log2(fold change) Pyrophosphate,[1]; metabolite Pyrophosphate,0.0000
same,Log2(fold change) Ribose-5-phosphate,[1]; metabolite Ribose-5-phosphate,-0.2996
same,Log2(fold change) S-adenosyl-L-homocysteine,[1]; metabolite S-adenosyl-L-homocysteine,-0.2761
same,Log2(fold change) S-adenosyl-L-methioninamine,[1]; metabolite S-adenosyl-L-methioninamine,0.0000
same,Log2(fold change) S-adenosyl-L-methionine,[1]; metabolite S-adenosyl-L-methionine,0.0000
same,Log2(fold change) S-methyl-5'-thioadenosine,[1]; metabolite S-methyl-5'-thioadenosine,0.0000
same,Log2(fold change) SD,[1]; metabolite SD,-0.1301
same,Log2(fold change) SDL,[1]; metabolite SDL,0.0000
same,Log2(fold change) SID,[1]; metabolite SID,-0.3691
same,Log2(fold change) Sedoheptulose bisphosphate,[1]; metabolite Sedoheptulose bisphosphate,-0.1909
same,Log2(fold change) Thiamine pyrophosphate,[1]; metabolite Thiamine pyrophosphate,0.0000
same,Log2(fold changes) UDP-D-glucose,"[1]; metabolite UDP-D-glucose, log2 fold change",-0.0066
same,Log2(fold changes) UDP-D-glucuronate,"[1]; metabolite UDP-D-glucuronate, log2 fold change",-0.1270
same,Log2(fold changes) UDP-N-acetyl-glucosamine,"[1]; metabolite UDP-N-acetyl-glucosamine, log2 fold change",-0.0647
same,Log2(fold changes) UDP,"[1]; metabolite UDP, log2 fold change",-0.3774
same,Log2(fold changes) UMP,"[1]; metabolite UMP, log2 fold change",0.1341
same,Log2(fold changes) UTP,"[1]; metabolite UTP, log2 fold change",-0.1532
same,Log2(fold change) hydroxyphenylpyruvate,[1]; metabolite hydroxyphenylpyruvate,0.0000
same,Log2(fold change) hydroxyproline/Aminolevulinate,[1]; metabolite hydroxyproline/Aminolevulinate,-0.0172
same,Log2(fold change) hypoxanthine,[1]; metabolite hypoxanthine,0.1957
same,Log2(fold change) indole,[1]; metabolite indole,0.0000
same,Log2(fold change) inosine,[1]; metabolite inosine,0.0926
same,Log2(fold change) isoleucine,[1]; metabolite isoleucine,0.0638
same,Log2(fold change) lactate,[1]; metabolite lactate,-0.1762
same,Log2(fold change) leucine,[1]; metabolite leucine,-0.0424
same,Log2(fold change) lysine,[1]; metabolite lysine,0.0000
same,Log2(fold change) malate,[1]; metabolite malate,-0.1070
same,Log2(fold change) maleic acid,[1]; metabolite maleic acid,-0.1330
same,Log2(fold change) methionine,[1]; metabolite methionine,0.1427
same,Log2(fold change) myo-inositol,[1]; metabolite myo-inositol,0.0000
same,Log2(fold change) nicotinamide mononucleotide,[1]; metabolite nicotinamide mononucleotide,0.0000
same,Log2(fold change) nicotinate,[1]; metabolite nicotinate,0.0441
same,Log2(fold change) ornithine,[1]; metabolite ornithine,0.0000
same,Log2(fold change) orotate,[1]; metabolite orotate,-0.0939
same,Log2(fold change) orotidine-5'-phosphate,[1]; metabolite orotidine-5'-phosphate,-0.0654
same,Log2(fold change) oxaloacetate,[1]; metabolite oxaloacetate,0.0000
same,Log2(fold change) p-aminobenzoate,[1]; metabolite p-aminobenzoate,0.0000
same,Log2(fold change) p-hydroxybenzoate,[1]; metabolite p-hydroxybenzoate,0.0000
same,Log2(fold change) pantothenate,[1]; metabolite pantothenate,-0.2167
same,Log2(fold change) phenylalanine,[1]; metabolite phenylalanine,0.0156
same,Log2(fold change) phenylpyruvate,[1]; metabolite phenylpyruvate,0.0000
same,Log2(fold change) phosphoenolpyruvate,[1]; metabolite phosphoenolpyruvate,-0.0337
same,Log2(fold change) prephenate,[1]; metabolite prephenate,0.0000
same,Log2(fold change) proline,[1]; metabolite proline,-0.1122
same,Log2(fold change) pyridoxine,[1]; metabolite pyridoxine,0.0678
same,Log2(fold change) pyruvate,[1]; metabolite pyruvate,-0.3415
same,Log2(fold change) riboflavin,[1]; metabolite riboflavin,0.0000
same,Log2(fold change) ribose,[1]; metabolite ribose,0.1290
same,Log2(fold change) ribose-phosphate,[1]; metabolite ribose-phosphate,-0.4836
same,Log2(fold change) ribulose-5-phosphate,[1]; metabolite ribulose-5-phosphate,-0.5090
same,Log2(fold change) serine,[1]; metabolite serine,-0.0671
same,Log2(fold change) sn-glycerol-3-phosphate,[1]; metabolite sn-glycerol-3-phosphate,-0.0482
same,Log2(fold change) succinate/Methylmalonic acid,[1]; metabolite succinate/Methylmalonic acid,0.1064
same,Log2(fold change) succinyl-CoA/methylmalonyl-CoA,[1]; metabolite succinyl-CoA/methylmalonyl-CoA,-0.0054
same,Log2(fold change) taurine,[1]; metabolite taurine,0.0000
same,Log2(fold change) thiamine,[1]; metabolite thiamine,0.0000
same,Log2(fold change) threonine/homoserine,[1]; metabolite threonine/homoserine,-0.1507
same,Log2(fold change) thymidine,[1]; metabolite thymidine,0.0000
same,Log2(fold changes) thymine,"[1]; metabolite thymine, log2 fold change",0.0000
same,Log2(fold changes) trehalose-6-Phosphate,"[1]; metabolite trehalose-6-Phosphate, log2 fold change",0.0000
same,Log2(fold changes) tryptophan,"[1]; metabolite tryptophan, log2 fold change",-0.0680
same,Log2(fold changes) tyrosine,"[1]; metabolite tyrosine, log2 fold change",-0.0190
same,Log2(fold changes) uridine,"[1]; metabolite uridine, log2 fold change",0.0000
same,IC50,[2],7.2 nM
same,IC50,"[3]; 3D7, read-out: Early rings Mean IC50 (IC50^8h), 8-h exposure 0–8 hr, 3D7-A10, survival at 60 h",23.7 nM
same,IC50,"[3]; 3D7, read-out: Early trophozoites Mean IC50 (IC50^8h), 8-h exposure 16–24 hr, 3D7-A10, survival at 60 h",57.6 nM
same,IC50,"[3]; 3D7, read-out: Late rings Mean IC50 (IC50^8h), 8-h exposure 8–16 hr, 3D7-A10, survival at 60 h",29.4 nM
same,IC50,"[3]; 3D7, read-out: Late trophozoites Mean IC50 (IC50^8h), 8-h exposure 24–32 hr, 3D7-A10, survival at 60 h",47.1 nM
same,IC50,"[3]; 3D7, read-out: Schizonts Mean IC50 (IC50^8h), 8-h exposure 32–40 hr, 3D7-A10, survival at 60 h",50.1 nM
same,Stage of peak activity (Figure 6),[3]; period when the parasite was most susceptible (lowest IC50^8h),ring stages
